# Laboratory results taken from patent US20250092014A1, “COMPOUNDS AND METHODS OF ACTIVATING LIPOPROTEIN LIPASE” (Metrea Biosciences, Inc., priority 2021, published 2025).
# Molecular target: T1, LPL:sGPIHBP1 complex (Homo sapiens, UniProt P06858)
# T1 sequence (P06858 28-475): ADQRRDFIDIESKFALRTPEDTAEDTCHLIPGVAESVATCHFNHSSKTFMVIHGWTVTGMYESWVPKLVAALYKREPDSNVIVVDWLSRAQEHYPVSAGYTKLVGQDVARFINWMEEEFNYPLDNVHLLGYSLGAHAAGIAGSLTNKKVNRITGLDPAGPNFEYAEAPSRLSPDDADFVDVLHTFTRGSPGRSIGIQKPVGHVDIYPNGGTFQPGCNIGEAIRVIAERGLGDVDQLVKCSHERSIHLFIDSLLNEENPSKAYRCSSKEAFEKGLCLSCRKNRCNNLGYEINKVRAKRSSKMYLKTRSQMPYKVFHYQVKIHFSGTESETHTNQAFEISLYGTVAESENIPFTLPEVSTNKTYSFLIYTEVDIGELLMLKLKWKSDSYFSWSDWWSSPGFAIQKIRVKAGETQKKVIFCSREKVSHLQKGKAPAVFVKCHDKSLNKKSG
# T1 sequence (Q8IV16 21-151 partner limits assumed): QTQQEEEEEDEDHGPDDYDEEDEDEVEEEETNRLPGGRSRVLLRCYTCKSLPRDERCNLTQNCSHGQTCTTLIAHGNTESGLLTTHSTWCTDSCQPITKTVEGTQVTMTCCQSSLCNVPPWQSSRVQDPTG
# Assay: RB assay (LPL:sGPIHBP1 pre-incubated with ANGPTL4, RB substrate)
# Assay type: biochemical
# Conditions: read-out: RB qAC50
# Method: The assay was performed in black 1536-well plates using purified proteins. To identify compounds that stimulate LPL activity either by directly activating LPL or by inhibiting the antagonist ANGPTL4, the LPL:sGPIHBP1 complex was pre-incubated with ANGPTL4 to decrease LPL activity by 80%. After a 60 min pre-incubation, the reaction was started by adding the RB substrate. 30 min after RB addition, the enzymatic reaction was stopped using SDS. Fluorescence intensity was measured 2 h after stopping the reaction.
# 20 or 40 nl of compound solution in 100% DMSO were placed in test plate. Then was added LPL:sGPIHBP1 to all wells (diluted in assay buffer to 5 nM; 2 μl/well). This was followed by an addition of ANGPTL4 to compounds and neutral controls (diluted in assay buffer to 20 nM; 1 μl/well). A buffer solution was added to the stimulator control (1 μl/well). The plates were then centrifuged and pre-incubated for 60 min at RT. The reaction was started by adding substrate to all wells (diluted in assay buffer to 40 μM, 1 μl/well). The plated were centrifuged (800 rpm for 1 min) and incubated 30 min at RT (=reaction time). The reaction was stopped by adding SDS to all wells (diluted in water to 2.5%, 2 μl/well); incubated 2 h at RT. The fluorescence intensity (ex 540 nm/em 590 nm) was measured on a Pherastar (BMG) using 5 flashes.
row,Structure (SMILES),EC50 [µM]
1,"O=C(O)Cc1cc(F)ccc1NC(=O)c1ccc(N2CCCCC2)c(NC(=O)c2nn(C[C@H]3CCCO3)c3ccccc23)c1 [Compound 137, (R)-2-(5-fluoro-2-(4-(piperidin-1-yl)-3-(1-((tetrahydrofuran-2-yl)methyl)-1H-indazole-3-carboxamido)benzamido)phenyl)acetic acid]",3.8
2,"O=C(O)Cc1ccc(F)cc1NC(=O)c1ccc(N2CCCCC2)c(NC(=O)c2nn(CC(F)(F)F)c3ccccc23)c1 [Compound 38, 2-(4-fluoro-2-(4-(piperidin-1-yl)-3-(1-(2,2,2-trifluoroethyl)-1H-indazole-3-carboxamido)benzamido)phenyl)acetic acid]",3.6
3,"Cc1nc(C(=O)Nc2cc(C(=O)Nc3ccc(F)cc3CC(=O)O)ccc2N2CCCCC2)n2ccccc12 [Compound 110, 2-(5-fluoro-2-(3-(1-methylimidazo[1,5-a]pyridine-3-carboxamido)-4-(piperidin-1-yl)benzamido)phenyl)acetic acid]",> 7.1
4,O=C(O)Cc1cc(F)ccc1NC(=O)c1ccc(N2CCCC2)c(NC(=O)c2nn(CC(F)(F)F)c3ccccc23)c1 [Example 50],24
5,NC(=O)C1CCCCN1c1ccc(C(=O)Nc2ccc(F)cc2CC(=O)O)cc1NC(=O)c1nn(CC(F)(F)F)c2ccccc12 (centres unmarked) [Example 71],> 7.1
6,"O=C(O)Cc1cc(F)ccc1NC(=O)c1ccc(N2CCCCC2)c(NC(=O)c2nn(CC(F)(F)F)cc2-c2ccccc2)c1 [Compound 115, 2-(5-fluoro-2-(3-(4-phenyl-1-(2,2,2-trifluoroethyl)-1H-pyrazole-3-carboxamido)-4-(piperidin-1-yl)benzamido)phenyl)acetic acid]",> 7.1
7,CC1CCCC(C)N1c1ccc(C(=O)Nc2ccc(F)cc2CC(=O)O)cc1NC(=O)c1nn(CC(F)(F)F)c2ccccc12 (centres unmarked) [Example 68],> 7.1
8,"O=C(O)Cc1cc(F)ccc1NC(=O)c1ccc(N2CCCCC2)c(NC(=O)c2nn(C3CC3)c3ccccc23)c1 [Compound 97, 2-(2-(3-(1-cyclopropyl-1H-indazole-3-carboxamido)-4-(piperidin-1-yl)benzamido)-5-fluorophenyl)acetic acid]",13
9,"Cc1cc(N2CCCCC2)c(NC(=O)c2nn(CC(F)(F)F)c3ccccc23)cc1C(=O)Nc1ccc(F)cc1CC(=O)O [Compound 55, 2-(5-fluoro-2-(2-methyl-4-(piperidin-1-yl)-5-(1-(2,2,2-trifluoroethyl)-1H-indazole-3-carboxamido)benzamido)phenyl)acetic acid]",5
10,"O=C(O)Cc1cc(F)ccc1NC(=O)c1ccc(N2CCCCC2)c(NC(=O)c2nn(CC3CCNCC3)c3ccccc23)c1 [Compound 103, 2-(5-fluoro-2-(4-(piperidin-1-yl)-3-(1-(piperidin-4-ylmethyl)-1H-indazole-3-carboxamido)benzamido)phenyl)acetic acid]",> 25
11,"O=C(O)Cc1cc(F)ccc1NC(=O)c1ccc(N2CCCCC2)c(NC(=O)c2nn(CC(F)(F)F)c3ncccc23)c1 [Compound 113, 2-(5-fluoro-2-(4-(piperidin-1-yl)-3-(1-(2,2,2-trifluoroethyl)-1H-pyrazolo[3,4-b]pyridine-3-carboxamido)benzamido)phenyl)acetic acid]",9
12,"NCCn1nc(C(=O)Nc2cc(C(=O)Nc3ccc(F)cc3CC(=O)O)ccc2N2CCCCC2)c2ccccc21 [Compound 100, 2-(2-(3-(1-(2-aminoethyl)-1H-indazole-3-carboxamido)-4-(piperidin-1-yl)benzamido)-5-fluorophenyl)acetic acid]",> 25
13,"O=C(O)Cc1cc(F)ccc1NC(=O)c1cnc(N2CCCCC2)c(NC(=O)c2nn(CC(F)(F)F)c3ccccc23)c1 [Compound 44, 2-(5-fluoro-2-(6-(piperidin-1-yl)-5-(1-(2,2,2-trifluoroethyl)-1H-indazole-3-carboxamido)nicotinamido)phenyl)acetic acid]",> 25
14,N#CC1CCN(c2ccc(C(=O)Nc3ccc(F)cc3CC(=O)O)cc2NC(=O)c2nn(CC(F)(F)F)c3ccccc23)CC1 [Example 48],> 25
